The record followed here is patent publication US7041662B2, “Substituted benzo [b] azepin-2-one compounds” (Grunenthal GmbH, priority 2002, dated 2006).

The assay concerns phenylquinone-induced writhing reactions. In words: phenylquinone-induced writhing in mice. Type of assay: in vivo. The conditions noted are these: male NMRI mice, phenylquinone i.p. 10 minutes after compound, writhing counted 5-20 minutes after phenylquinone. As for the experimental part: The investigation into analgesic efficacy was performed by phenylquinone-induced writhing in mice (modified after: I. C. Hendershot, J. Forsaith, J. Pharmacol. Exp. There. 125, 237–240 (1959)). The corresponding literature description is hereby introduced as a reference and is deemed to be part of the disclosure.
Male NMRI mice weighing from 25 to 30 g were used for this purpose. Groups of 10 animals per substance dose received, 10 minutes after intravenous administration of the compounds tested, 0.3 ml/mouse of a 0.02% aqueous solution of phenylquinone (phenylbenzoquinone, Sigma, Deisenhofen; solution prepared with addition of 5% of ethanol and stored in a water bath at 45° C.) administered intraperitoneally. The animals were placed individually in observation cages. A push button counter was used to record the number of pain-induced stretching movements (writhing reactions=straightening of the torso with stretching of the rear extremities) for 5–20 minutes after phenylquinone administration. The control was provided by animals who received only physiological common salt solution.
The compounds were tested at the standard dosage of 10 mg/kg. Inhibition of the writhing reactions by a substance was calculated according to the following formula: […]
The in-depth investigation into analgesic efficacy was performed using phenylquinone-induced writhing in mice, as described above.
In general terms: An intraperitoneal irritant provokes the stretching counted in writhing tests.

As to `COc1cccc(C2(O)CCC(OC(=O)CC3=CCC(=O)N(C)c4cc(Cl)ccc43)CC2CN(C)C)c1` (stereo not drawn) [Example 4, 2′-(8-chloro-1-methyl-2-oxo-2,3-dihydro-1H-benzo[b]azepin-5-yl) acetic acid [3″-(N,N-dimethylaminomethyl)-4″-hydroxy-4″-(m-methoxyphenyl)cyclohexyl]ester], the “% inhibition of writhing reactions 10 mg/kg i.v.” value is 39%. As for `COc1cccc(C2(O)CCC(OC(=O)CC3=CCC(=O)Nc4cc(Cl)ccc43)CC2CN(C)C)c1` (stereo not drawn) [Example 5, 2′-(8-chloro-2-oxo-2,3-dihydro-1H-benzo[b]azepin-5-yl) acetic acid [3″-(N,N-dimethylaminomethyl)-4″-hydroxy-4″-(m-methoxyphenyl)cyclohexyl]ester], the figure is 63%. Then `COc1cccc(C2(O)CCC(NC(=O)CC3=CCC(=O)N(C)c4cc(Cl)ccc43)CC2CN(C)C)c1` (stereo not drawn) [Example 6, 2′-(8-chloro-1-methyl-2-oxo-2,3-dihydro-1H-benzo[b]azepin-5-yl)-N-[3″-(N,N-dimethylaminomethyl)-4″-hydroxy-4″-(m-methoxyphenyl)cyclohexyl]acetamide], with 25%.
